{"source": "patent US10189796B2", "about": "“[4-(1,3,3-trimethyl-2-oxo-3,4-dihydro-1H-quinoxalin-7-yl)phenoxy]ethyloxy compound or salt thereof” (SANTEN PHARMACEUTICAL CO., LTD., priority 2015, dated 2019)", "key": {"[1]": {"system": "VEGF-induced retinal elevated vascular permeability model of rabbits", "assay": "Retinal vascular permeability model evaluation test", "format": "in vivo, rabbit", "settings": "2% 50 μL/base agent A, intravitreal once", "description": "In order to evaluate the inhibitory effect of the present compounds on VEGF-induced retinal vascular permeability, the inhibitory effect of the present compound on retinal vascular permeability in a VEGF-induced retinal elevated vascular permeability model of rabbits was evaluated. Incidentally, this effect was evaluated by calculating a leaked amount of the fluorescent dye of the base agent administered group (non-induced group), a leaked amount of the fluorescent dye of the base agent administered group (control group) and a leaked amount of the fluorescent dye of the test compound administered group.\nTo the test compound was added 0.01% Polysorbate 80/0.5% sodium carboxymethyl cellulose/PBS (hereinafter referred to as “base agent A”.), whereby 2% (W/V) or 8% (W/V) of the test compound suspension was prepared. Or else, to the test compound was added PEG400 (hereinafter referred to as “base agent B”.), whereby 6% (W/W) of the test compound solution was prepared.\nVEGF solution: humanVEGF165 was dissolved in PBS to prepare 50 μg/mL of VEGF solution.\n• 1) A mixed solution (1 mL/kg) of 5% ketamine hydrochloride injection solution and 2% xylazine hydrochloride injection solution with the ratio of 7:1 was intramuscularly administered to rabbits (Dutch male rabbits), and the rabbits were anesthetized. • 2) Tropicamide-phenylephrine hydrochloride ophthalmic solution (trade name: Midlin P) was eye dropped to maintain pupillary mydriasis, and then, the VEGF solution was intravitreally administered. Incidentally, PBS was intravitreally administered to the base agent administration group (non-induced group). • 3) Fluorescein was intravenously administered 2 days after intravitreal administration of VEGF. Two hours after the intravenous administration of fluorescein, an amount of the leaked fluorescent dye in the vitreous body was measured by using a fluorophotometer. (Test Method) • 1) One week before or 4 weeks before VEGF-induction, 50 μL of the test compound suspension (prepared by the base agent A) was intravitreally administered once, or 5 μL of the test compound solution (prepared by the base agent B) was intravitreally administered once. Incidentally, in the base agent administered group (non-induced group) and the base agent administered group (control group), the base agent A was used in place of the test compound suspension, or the base agent B was used in place of the test compound solution. • 2) Inhibition ratio of elevated retinal vascular permeability was calculated according to the following calculation formula. (Calculation Formula) Inhibitory ratio (%) on elevated retinal vascular permeability of the test compound administered group=100×{1−(average value of a leaked fluorescent dye amount in the test compound administered group−average value of a leaked fluorescent dye amount in the base agent administered group (non-induced group))/(average value of a leaked fluorescent dye amount in the base agent administered group (control group)−average value of a leaked fluorescent dye amount of the base agent administered group (non-induced group))}"}, "[2]": {"system": "ovalbumin actively sensitized allergic conjunctivitis model of rabbits", "assay": "Allergic conjunctivitis model evaluation test", "format": "in vivo, rabbit", "settings": "eye drop 50 μL four times a day for 4 days plus once, 0.5 hour after challenge", "description": "In order to evaluate an anti-allergic action of the present compounds on allergic conjunctivitis, an inhibitory effect on hyperemia in an ovalbumin actively sensitized allergic conjunctivitis model of rabbits was investigated. Incidentally, this effect was evaluated by calculating an inhibitory ratio from the score of the base agent administered group (control group) and the score of the test compound administered group.\nA base agent containing a general additive(s) was added to the test compound to prepare test compound suspensions with 1% (WN) and 3% (W/V).\nBy using male JW rabbits, ovalbumin (200 μg/mL/physiological saline solution) adsorbed on aluminum hydroxide gel was injected 200 μL per eye into bulbar conjunctiva of both eyes of rabbits, respectively, to perform active sensitization.\nAfter 14 days from sensitization or later, the test compound suspension was eye-dropped four times a day for 4 days, and then, at the next day, it was eye-dropped (instillation dose: 50 μL/time) once to both eyes. Incidentally, the base agent was similarly eye-dropped to the base agent administered group (control group).\nOne hour after the final eye dropping of the test compound suspension, a physiological saline solution containing 0.02% (W/V) of ovalbumin was administered from rabbit ear vein at a dose of 1.5 mL per 1 kg of rabbit to induce allergic conjunctivitis.\nAfter 0.5 hour of the challenge, the degree of hyperemia symptoms of both ocular conjunctiva of rabbits was evaluated according to the following criteria, and the average value of the total of these scores was calculated. […]"}, "[3]": {"system": "exorbital lacrimal gland-removed rat dry eye model", "assay": "Dry eye syndrome (dry eye) model evaluation test", "format": "in vivo", "settings": "eye drop 5 μL four times a day"}, "[4]": {"system": "carrageenin-caused conjunctivitis model of rats", "assay": "Conjunctivitis model evaluation test", "format": "in vivo, rat", "settings": "1% suspension, eye dropped 5 μL five times from 1 hour before to 3 hours after induction", "description": "In order to evaluate an anti-inflammatory action of the present compound to conjunctivitis, an inhibitory effect on edema formation in a carrageenin-caused conjunctivitis model of rats was investigated. Incidentally, this effect was evaluated by calculating an edema formation inhibitory ratio from a weight of the edema in a base agent administered group (control group) and a weight of the edema in the test compound administered group.\nA base agent containing a general additive(s) was added to the test compound to prepare test compound suspensions with 0.001% (W/V), 0.003% (W/V), 0.01% (W/V) and 1% (W/V). […]\nFour hours after induction, rats under general anesthesia were sacrificed by decapitation method, conjunctival edema areas of both eyes were removed, and the weight of each was measured. The edema formation inhibitory ratio was calculated from the average value of the weight of the edema.\nBased on the average value of the weight of the edema of the base agent administered group (control group), the edema formation inhibitory ratio of the test compound suspension eye drop group was calculated by the following calculation formula. […]"}}, "data": [{"smiles": "CCCC(=O)Oc1ccc(-c2ccc3c(c2COc2cc(F)ccc2C)N(C)C(=O)C(C)(C)N3)c(OC)c1", "note": "[Control compound D, 7-(4-butyryloxy-2-methoxyphenyl)-8-(5-fluoro-2-methylphenoxymethyl)-1,3,3-trimethyl-3,4-dihydro-1H-quinoxalin-2-one, reference compound]", "values": [{"measurement": "Inhibitory ratio (%) on elevated vascular permeability", "setting": "[1]; 4 weeks before VEGF induction", "value": 38, "unit": "%"}]}, {"smiles": "COc1ccc(-c2ccc3c(c2COc2cc(F)ccc2C)N(C)C(=O)C(C)(C)N3)c(OC)c1", "note": "[Control compound E, 7-(2,4-dimethoxyphenyl)-8-(5-fluoro-2-methyl-phenoxymethyl)-1,3,3-trimethyl-3,4-dihydro-1H-quinoxalin-2-one, reference compound]", "values": [{"measurement": "Inhibitory ratio (%) on elevated vascular permeability", "setting": "[1]; 1 week before VEGF induction", "value": 47, "unit": "%"}]}, {"smiles": "COc1cc(OC[C@@H](O)CC#N)ccc1-c1ccc2c(c1COc1cc(F)ccc1C)N(C)C(=O)C(C)(C)N2", "note": "[Compound 5-2, (S)-7-[4-(3-cyano-2-hydroxypropyl)oxy-2-methoxyphenyl]-8-(5-fluoro-2-methyl-phenoxymethyl)-1,3,3-trimethyl-3,4-dihydro-1H-quinoxalin-2-one]", "values": [{"measurement": "Inhibitory ratio (%) on elevated vascular permeability", "setting": "[1]; 1 week before VEGF induction", "value": 96, "unit": "%"}, {"measurement": "Inhibitory ratio (%) on elevated vascular permeability", "setting": "[1]; 4 weeks before VEGF induction", "value": 91, "unit": "%"}, {"measurement": "Eye congestion inhibitory ratio (%)", "setting": "[2]; 3% suspension", "value": 35, "unit": "%"}]}, {"smiles": "COc1cc(OC[C@H](C)OC(=O)CN(C)C)ccc1-c1ccc2c(c1COc1cc(F)ccc1C)N(C)C(=O)C(C)(C)N2", "note": "[Compound 11-1, (S)-7-[4-[2-(N,N-dimethylaminoacetoxy)propyl]oxy-2-methoxyphenyl]-8-(5-fluoro-2-methylphenoxymethyl)-1,3,3-trimethyl-3,4-dihydro-1H-quinoxalin-2-one]", "values": [{"measurement": "Corneal disorder improvement ratio (%) After 7 days eye dropping", "setting": "[3]; 0.03%", "value": 35, "unit": "%"}, {"measurement": "Corneal disorder improvement ratio (%) After 7 days eye dropping", "setting": "[3]; 0.1%", "value": 44, "unit": "%"}, {"measurement": "Eye congestion inhibitory ratio (%)", "setting": "[2]; 1% suspension", "value": 44, "unit": "%"}]}, {"smiles": "COc1ccc(O)cc1-c1ccc2c(c1COc1cc(F)ccc1C)N(C)C(=O)C(C)(C)N2", "note": "[Control compound C, 8-(5-fluoro-2-methylphenoxymethyl)-7-(5-hydroxy-2-methoxyphenyl)-1,3,3-trimethyl-3,4-dihydro-1H-quinoxalin-2-one]", "values": [{"measurement": "Edema formation inhibitory ratio (%)", "setting": "[4]", "value": 14, "unit": "%"}]}]}
